In paper doi:10.1101/2023.11.08.566240v2, “Divergent Protein Kinase A contributes to the regulation of flagellar waveforms in Leishmania mexicana” (biorxiv, 2025):

Molecular target: T1, LmxPKAR1-LmxPKAC1 (mNG::PKAC1) (Leishmania mexicana, UniProt E9AP50)
T1 construct: gene LMXM_13_0160; with protein kinase A catalytic subunit isoform 1
T1 sequence (E9AP50 1-503): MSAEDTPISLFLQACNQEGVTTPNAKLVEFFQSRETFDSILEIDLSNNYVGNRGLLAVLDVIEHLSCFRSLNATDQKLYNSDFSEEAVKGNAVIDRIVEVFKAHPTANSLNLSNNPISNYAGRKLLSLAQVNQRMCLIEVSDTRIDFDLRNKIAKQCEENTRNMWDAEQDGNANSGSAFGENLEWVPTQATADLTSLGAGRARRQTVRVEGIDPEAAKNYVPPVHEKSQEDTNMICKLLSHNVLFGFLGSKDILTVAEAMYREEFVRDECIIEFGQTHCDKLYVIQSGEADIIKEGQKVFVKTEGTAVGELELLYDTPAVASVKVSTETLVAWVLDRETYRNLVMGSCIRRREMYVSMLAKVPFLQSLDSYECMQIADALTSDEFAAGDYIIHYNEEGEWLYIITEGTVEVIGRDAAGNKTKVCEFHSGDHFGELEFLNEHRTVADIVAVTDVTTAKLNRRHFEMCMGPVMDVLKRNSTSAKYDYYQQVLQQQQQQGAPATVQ
T1 sequence (E9B6S9 1-371 partner): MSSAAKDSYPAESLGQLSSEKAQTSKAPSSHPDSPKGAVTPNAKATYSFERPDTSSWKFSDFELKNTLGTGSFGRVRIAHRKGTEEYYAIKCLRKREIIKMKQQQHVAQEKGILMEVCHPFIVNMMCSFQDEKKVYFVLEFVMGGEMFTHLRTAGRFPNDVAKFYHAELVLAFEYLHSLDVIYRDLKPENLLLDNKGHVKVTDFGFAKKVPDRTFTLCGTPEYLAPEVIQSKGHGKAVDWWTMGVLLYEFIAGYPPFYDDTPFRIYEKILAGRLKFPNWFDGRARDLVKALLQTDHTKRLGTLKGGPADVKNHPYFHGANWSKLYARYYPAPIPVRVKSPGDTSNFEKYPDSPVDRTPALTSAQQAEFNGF
Assay: release of mNG::PKAC1 fluorescence from flagellar cytoskeletons, microscopy
Assay type: biochemical
Conditions: indirect assay of PKAR1 activation; detergent-extracted cytoskeletons in PEME buffer; 10 nM to 10 µM inosine

OC[C@H]1O[C@@H](n2cnc3c(O)ncnc32)[C@H](O)[C@@H]1O [inosine]
EC50: ~9 nM
